Patent publication US20120309742A1, “USE OF METABOTROPIC GLUTAMATE RECEPTORS” (priority 2006, published 2012)
Where a name gives a salt, the structure may show the parent alone.

Each compound was assayed against T1, mGluR5 (Homo sapiens, UniProt P41594) (assay: inhibition of the glutamate induced elevation of intracellular Ca2+-concentration). Details: inhibition of glutamate induced elevation of intracellular Ca2+-concentration at a concentration of 10 μM.
T1 construct: expressed in transfected cells
T1 sequence (P41594 21-1180 isoform P41594-2 limits assumed): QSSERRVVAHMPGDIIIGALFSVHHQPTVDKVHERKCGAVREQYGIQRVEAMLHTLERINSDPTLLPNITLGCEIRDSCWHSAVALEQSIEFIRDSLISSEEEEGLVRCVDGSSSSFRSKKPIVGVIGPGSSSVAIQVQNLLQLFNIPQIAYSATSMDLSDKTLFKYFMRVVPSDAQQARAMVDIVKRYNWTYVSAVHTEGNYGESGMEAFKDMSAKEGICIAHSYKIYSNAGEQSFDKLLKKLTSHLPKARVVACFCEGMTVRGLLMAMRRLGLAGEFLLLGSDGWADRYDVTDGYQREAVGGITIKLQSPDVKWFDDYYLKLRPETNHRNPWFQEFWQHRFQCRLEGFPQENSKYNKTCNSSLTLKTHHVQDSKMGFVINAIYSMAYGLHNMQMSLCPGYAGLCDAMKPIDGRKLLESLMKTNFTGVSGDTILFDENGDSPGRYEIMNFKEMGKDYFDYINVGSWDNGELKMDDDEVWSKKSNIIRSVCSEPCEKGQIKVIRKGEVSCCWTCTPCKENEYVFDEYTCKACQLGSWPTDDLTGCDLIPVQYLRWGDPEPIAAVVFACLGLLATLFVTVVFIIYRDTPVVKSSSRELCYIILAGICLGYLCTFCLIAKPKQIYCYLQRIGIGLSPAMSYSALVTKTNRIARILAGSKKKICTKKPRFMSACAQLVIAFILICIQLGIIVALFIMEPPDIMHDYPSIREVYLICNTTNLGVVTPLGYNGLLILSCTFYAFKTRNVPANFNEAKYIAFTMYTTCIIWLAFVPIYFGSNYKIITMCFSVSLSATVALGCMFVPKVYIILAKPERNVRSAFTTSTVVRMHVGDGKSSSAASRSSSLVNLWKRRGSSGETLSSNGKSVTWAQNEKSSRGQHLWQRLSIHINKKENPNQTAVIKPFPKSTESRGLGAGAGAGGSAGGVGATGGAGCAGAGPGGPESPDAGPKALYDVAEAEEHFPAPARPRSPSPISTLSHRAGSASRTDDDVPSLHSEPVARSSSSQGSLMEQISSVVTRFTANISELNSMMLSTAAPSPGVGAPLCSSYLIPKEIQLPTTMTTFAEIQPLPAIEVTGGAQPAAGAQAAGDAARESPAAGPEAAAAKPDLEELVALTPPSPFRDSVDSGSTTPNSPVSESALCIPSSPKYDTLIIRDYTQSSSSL
Format: cell-based
From the text: This can be determined in vitro for example at recombinant human metabotropic glutamate receptors, especially PLC-coupled subtypes thereof such as mGluR5, using different procedures like, for example, measurement of the inhibition of the agonist induced elevation of intracellular Ca^2+ concentration in accordance with L. P. Daggett et al., Neuropharm.

For O=C(c1ccc(Nc2ccc(Cl)cc2)nc1)N1C2CCC1CC(O)C2 (centres unmarked) [Compound 4.11, [6-(4-Chloro-phenylamino)-pyridin-3-yl]-(3-hydroxy-8-aza-bicyclo[3.2.1]oct-8-yl)-methasone], which “mGluR5 Activity inh. at 10 μM [%]” value is on record?
Its value is 51%.

Which “mGluR5 Activity inh. at 10 μM [%]” value does the source give for CCC(CC)C1OCCCCN1C(=O)c1cnc(Nc2ccc(C)nc2)c(Cl)c1 (centres unmarked) [Compound 4.67] here?
Its value is 95%.

With CCC[C@H]1CCCCN1C(=O)c1cnc(Nc2ccc(C)nc2)c(Cl)c1 [Compound 4.35, [5-Chloro-6-(6-methyl-pyridin-3-ylamino)-pyridin-3-yl]-((S)-2-propyl-piperidin-1-yl)-methasone] as the compound, how does the “mGluR5 Activity inh. at 10 μM [%]” value read?
The value was 85%.

For Cc1ccc(Nc2ccc(C(=O)N3CCC[C@H](C)C3)cn2)cn1 [Compound 4.13a, (S-3-Methyl-piperidin-1-yl)-[6-(6-methyl-pyridin-3-ylamino)-pyridin-3-yl]-methanone], which “mGluR5 Activity inh. at 10 μM [%]” value is on record?
Its value is 97%.

CCOCC1CCCCN1C(=O)c1cnc(Nc2ccc(C)nc2)c(Cl)c1 (centres unmarked) [Compound 4.60, [5-Chloro-6-(6-methyl-pyridin-3-ylamino)-pyridin-3-yl]-(2-thoxymethyl-piperidin-1-yl)-methanone] was tested. Which “mGluR5 Activity inh. at 10 μM [%]” value did it give?
Its value is 97%.

For Cc1ccc(Nc2ccc(C(=O)N3CCCC(C)C3)cn2)cc1 (centres unmarked) [Compound 1.13], which “mGluR5 Activity inh. at 10 μM [%]” value is on record?
Its value is 96%.

C/C=C\C1CCCCN1C(=O)c1cnc(Nc2ccc(C)nc2)c(Cl)c1 (centres unmarked) [Compound 4.56, [5-Chloro-6-(6-methyl-pyridin-3-ylamino)-pyridin-3-yl]-[((Z)-2-propenyl)-piperidin-1-yl]-methanone] was tested. Which “mGluR5 Activity inh. at 10 μM [%]” value did it give?
The value was 97%.

How did the “mGluR5 Activity inh. at 10 μM [%]” value turn out when C[C@H]1CCCN(C(=O)c2ccc(Nc3ccc(Cl)cc3)nc2)C1 [Compound 1.12a, [6-(4-Chloro-phenylamino)-pyridin-3-yl]-(S-3-methyl-piperidin-1-yl)-methanone] was run?
The value was 99%.

Cc1ccc(Nc2ncc(C(=O)N3CCCC4CCCC43)cc2Cl)cn1 (centres unmarked) [Compound 4.25, [5-Chloro-6-(6-methyl-pyridin-3-ylamino)-pyridin-3-yl]-(octahydro-[1]pyrindin-1-yl)-methasone] was tested. Which “mGluR5 Activity inh. at 10 μM [%]” value did it give?
The value was 98%.

Same assay, conditions: read-out: mGluR5 Activity inh. at 10 μM [%]

How did the inhibition at 10 µM turn out when Cc1ccc(Nc2ncc(C(=O)N3CCC[C@@H]4CCC[C@@H]43)cc2Cl)cn1 [Compound 4.26, [5-Chloro-6-(6-methyl-pyridin-3-ylamino)-pyridin-3-yl]-(4aS,7aS)-octahydro-[1]pyrindin-1-yl-methanone] was run?
The inhibition at 10 µM was 93%.

With COc1ccc(Nc2ccc(C(=O)N3C[C@@H](C)O[C@@H](C)C3)cn2)cc1 [Compound 1.21, (cis-2,6-Dimethyl-morpholin-4-yl)-[6-(4-methoxy-phenylamino)-pyridin-3-yl]-methanone hydrochloride] as the compound, how does the inhibition at 10 µM read?
Its inhibition at 10 µM is 57%.
